Laboratory results as given in PMC5975834 (2015).

Columns and labels:
[1] = tested on: TSDzyme (out) (DNA, G4) GGGTAGGGCGGGTTGGGCAGTTGAGACGAACATTCCTAAGTCTGAAATTTATCACCCGCCATAGTAGACGTATCACCAGG/CTTGCTACACGATTCAGACTTAGGAATGTTCGACATGCGAGGGTCCAATACCGACGATTACAG/GGTGATAAAACGTGTAGCAAGCTGTAATCGACGGGAAGAGCATGCCCATCCACTACTATGGCG/CCTCGCATGACTCAACTGCCTGGTGATACGAGGATGGGCATGCTCTTCCCGACGGTATTGGAC; assay: hemin absorbance at 404 nm vs DNA concentration; details: K+ 20 mM KAc, 70 mM KCl (assumed KAc buffer)
[2] = tested on: 10 bp Bi-quadruplex (DNA, G4) GGGTAGGGCGGGTTGGGTTTTTTTTTTGGGTAGGGCGGGTTGGG; details: K+ 20 mM KAc, 70 mM KCl (assumed KAc buffer)
[3] = tested on: TSDzyme (in) (DNA, G4) GGGTAGGGCGGGTTGGGCCAGGCAGTTGAGACGAACATTCCTAAGTCTGAAATTTATCACCCGCCATAGTAGACGTATCA/CTTGCTACACGATTCAGACTTAGGAATGTTCGACATGCGAGGGTCCAATACCGACGATTACAG/GGTGATAAAACGTGTAGCAAGCTGTAATCGACGGGAAGAGCATGCCCATCCACTACTATGGCG/CCTCGCATGACTCAACTGCCTGGTGATACGAGGATGGGCATGCTCTTCCCGACGGTATTGGAC; assay: free energy of hemin/G-quadruplex complex formation
[4] = tested on: 15 bp Bi-quadruplex (DNA, G4) GGGTAGGGCGGGTTGGGTTTTTTTTTTTTTTTGGGTAGGGCGGGTTGGG; details: K+ 20 mM KAc, 70 mM KCl (assumed KAc buffer)
[5] = tested on: 5 bp Bi-quadruplex (DNA, G4) GGGTAGGGCGGGTTGGGTTTTTGGGTAGGGCGGGTTGGG; details: K+ 20 mM KAc, 70 mM KCl (assumed KAc buffer)
[6] = tested on: Hairpin-based allosteric TSDzyme (DNA, G4) AGGCAGTTGAGACGAACATTCCTAAGTCTGAAATTTATCACCCGCCATAGTAGACGTATCACC/CTTGCTACACGATTCAGACTTAGGAATGTTCGACATGCGAGGGTCCAATACCGACGATTACAG/GGTGATAAAACGTGTAGCAAGCTGTAATCGACTCTAGCGGAAGAACCCACAACCGCGGCTCACTACTATGGCG/GGGTAGGGCGGGTTGGGTTAGAGACGGTATTGGACCCTCGCATGACTCAACTGCCTGGTGATACGAGAGCCTGGGTAGGGCGGGTTGGG; details: K+ 20 mM KAc, 70 mM KCl (assumed KAc buffer)
[7] = tested on: G-quadruplex (free hemin-G) (DNA, G4) GGGTAGGGCGGGTTGGG; assay: free energy of hemin/G-quadruplex complex formation
[8] = tested on: TSDzyme (in) (DNA, G4) GGGTAGGGCGGGTTGGGCCAGGCAGTTGAGACGAACATTCCTAAGTCTGAAATTTATCACCCGCCATAGTAGACGTATCA/CTTGCTACACGATTCAGACTTAGGAATGTTCGACATGCGAGGGTCCAATACCGACGATTACAG/GGTGATAAAACGTGTAGCAAGCTGTAATCGACGGGAAGAGCATGCCCATCCACTACTATGGCG/CCTCGCATGACTCAACTGCCTGGTGATACGAGGATGGGCATGCTCTTCCCGACGGTATTGGAC; assay: hemin absorbance at 404 nm vs DNA concentration; details: K+ 20 mM KAc, 70 mM KCl (assumed KAc buffer)
[9] = tested on: Hairpin-based allosteric TSDzyme (DNA, G4) AGGCAGTTGAGACGAACATTCCTAAGTCTGAAATTTATCACCCGCCATAGTAGACGTATCACC/CTTGCTACACGATTCAGACTTAGGAATGTTCGACATGCGAGGGTCCAATACCGACGATTACAG/GGTGATAAAACGTGTAGCAAGCTGTAATCGACTCTAGCGGAAGAACCCACAACCGCGGCTCACTACTATGGCG/GGGTAGGGCGGGTTGGGTTAGAGACGGTATTGGACCCTCGCATGACTCAACTGCCTGGTGATACGAGAGCCTGGGTAGGGCGGGTTGGG; assay: free energy of hemin/G-quadruplex complex formation
[10] = tested on: ATP-based allosteric TSDzyme (DNA, G4) AGGCAGTTGAGACGAACATTCCTAAGTCTGAAATTTATCACCCGCCATAGTAGACGTATCACC/CTTGCTACACGATTCAGACTTAGGAATGTTCGACATGCGAGGGTCCAATACCGACGATTACAG/GGTGATAAAACGTGTAGCAAGCTGTAATCGACTCTAACCTGGGGGAGTATTGCGGAGGAAGGTGGCTCACTACTATGGCG/GGGTAGGGCGGGTTGGGTTAGAGACGGTATTGGACCCTCGCATGACTCAACTGCCTGGTGATACGAGAGCCTGGGTAGGGCGGGTTGGG; details: K+ 20 mM KAc, 70 mM KCl (assumed KAc buffer)
[11] = tested on: ATP-based allosteric TSDzyme (DNA, G4) AGGCAGTTGAGACGAACATTCCTAAGTCTGAAATTTATCACCCGCCATAGTAGACGTATCACC/CTTGCTACACGATTCAGACTTAGGAATGTTCGACATGCGAGGGTCCAATACCGACGATTACAG/GGTGATAAAACGTGTAGCAAGCTGTAATCGACTCTAACCTGGGGGAGTATTGCGGAGGAAGGTGGCTCACTACTATGGCG/GGGTAGGGCGGGTTGGGTTAGAGACGGTATTGGACCCTCGCATGACTCAACTGCCTGGTGATACGAGAGCCTGGGTAGGGCGGGTTGGG; assay: free energy of hemin/G-quadruplex complex formation
[12] = tested on: TSDzyme (out) (DNA, G4) GGGTAGGGCGGGTTGGGCAGTTGAGACGAACATTCCTAAGTCTGAAATTTATCACCCGCCATAGTAGACGTATCACCAGG/CTTGCTACACGATTCAGACTTAGGAATGTTCGACATGCGAGGGTCCAATACCGACGATTACAG/GGTGATAAAACGTGTAGCAAGCTGTAATCGACGGGAAGAGCATGCCCATCCACTACTATGGCG/CCTCGCATGACTCAACTGCCTGGTGATACGAGGATGGGCATGCTCTTCCCGACGGTATTGGAC; assay: as above
[13] = tested on: G-quadruplex (free hemin-G) (DNA, G4) GGGTAGGGCGGGTTGGG; assay: hemin absorbance at 404 nm vs DNA concentration; details: K+ 20 mM KAc, 70 mM KCl (assumed KAc buffer)
[14] = tested on: ATP-based allosteric TSDzyme (DNA, G4) AGGCAGTTGAGACGAACATTCCTAAGTCTGAAATTTATCACCCGCCATAGTAGACGTATCACC/CTTGCTACACGATTCAGACTTAGGAATGTTCGACATGCGAGGGTCCAATACCGACGATTACAG/GGTGATAAAACGTGTAGCAAGCTGTAATCGACTCTAACCTGGGGGAGTATTGCGGAGGAAGGTGGCTCACTACTATGGCG/GGGTAGGGCGGGTTGGGTTAGAGACGGTATTGGACCCTCGCATGACTCAACTGCCTGGTGATACGAGAGCCTGGGTAGGGCGGGTTGGG; assay: allosteric change of peroxidase activity; details: 0.5 mM ATP

| KD [1] [nM] | KD [2] [nM] | -ΔGtetra [3] [kcal/mol] | KD [4] [nM] | KD [5] [nM] | KD [6] [nM] | -ΔGfree [7] [kcal/mol] | KD [8] [nM] | -ΔGtetra [9] [kcal/mol] | KD [10] [nM] | -ΔGtetra [11] [kcal/mol] | -ΔGtetra [12] [kcal/mol] | KD [13] [nM] | binding [14] | Compound |
| --- | --- | --- | --- | --- | --- | --- | --- | --- | --- | --- | --- | --- | --- | --- |
| 750 ± 230 | 1300 ± 200 | 8.39 ± 0.12 | 1300 ± 400 | 1200 ± 200 | 500 ± 150 | 7.72 ± 0.14 | 700 ± 140 | 8.58 ± 0.17 | 450 ± 170 | 8.65 ± 0.22 | 8.34 ± 0.17 | 2200 ± 500 |  | C=CC1=C(C)C2=Cc3c(C=C)c(C)c4[n]3[Fe]([Cl])[n]3c(c(C)c(CCC(=O)O)c3=CC3=NC(=C4)C(C)=C3CCC(=O)O)=CC1=N2 |
|  |  |  |  |  |  |  |  |  |  |  |  |  | yes | Nc1ncnc2c1ncn2[C@@H]1O[C@H](COP(=O)(O)OP(=O)(O)OP(=O)(O)O)[C@@H](O)[C@H]1O |
